In assay [1] the target is T1, A1-T458S/T459C (mutant ASCT1) (Homo sapiens, UniProt P43007, T458S/T459C).
T1 construct: expressed in transfected cells; host or cells: Xenopus laevis oocytes (cRNA injection)
T1 sequence (P43007 1-532 T458S/T459C): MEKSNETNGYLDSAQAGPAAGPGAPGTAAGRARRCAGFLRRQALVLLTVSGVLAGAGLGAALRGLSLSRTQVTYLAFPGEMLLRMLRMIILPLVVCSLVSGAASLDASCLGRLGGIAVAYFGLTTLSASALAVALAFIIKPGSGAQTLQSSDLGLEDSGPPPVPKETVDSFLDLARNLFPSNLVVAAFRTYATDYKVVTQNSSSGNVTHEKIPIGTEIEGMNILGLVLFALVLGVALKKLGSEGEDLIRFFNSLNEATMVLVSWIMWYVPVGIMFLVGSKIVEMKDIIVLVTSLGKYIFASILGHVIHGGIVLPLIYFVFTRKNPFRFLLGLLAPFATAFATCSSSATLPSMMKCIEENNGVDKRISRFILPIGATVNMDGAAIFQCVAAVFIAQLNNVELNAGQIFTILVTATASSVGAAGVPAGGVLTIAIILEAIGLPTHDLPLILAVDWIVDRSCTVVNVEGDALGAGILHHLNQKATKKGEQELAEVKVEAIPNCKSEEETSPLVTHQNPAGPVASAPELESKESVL
Briefly: Two electrode voltage clamp, substrate-activated anion current in oocytes expressing A1-T458S/T459C. The format is cell-based. The note with it: for EC50: A1-T458S/T459C in oocytes, NO3−-containing buffer, current at +60 mV. As to the method: (§1) All chemicals were obtained from Sigma unless otherwise stated. Stage V oocytes were harvested from female Xenopus laevis (frogs) which were obtained from Nasco (Fort Alkinson, USA). Frogs were anaesthetised with 6.5 mM tricaine neutralised with 7.14 mM sodium bicarbonate. After making an incision in the abdomen of the frog, ovarian sacs were removed and stored in OR-2 buffer (82.5 mM NaCl, 2 mM KCl, 1 mM MgCl2, 5 mM hemisodium HEPES, pH 7.5). This surgical procedure follows a protocol (#2016/970) approved by the University of Sydney Animal Ethics Committee under the Australian Code of Practice for the Care and Use of Animals for Scientific Purposes. To isolate oocytes, the ovarian sacs were cut into small sections before being digested by agitation with 2 mg per ml Collagenase A for 1–2 h. Following digestion, defoliculated oocytes were initially rinsed with OR-2, followed by frog Ringer’s solution (96 mM NaCl, 2 mM KCl, 1 mM MgCl2, 1.8 mM CaCl2, 5 mM hemisodium HEPES, pH 7.5). A total of 20 ng of transporter cRNA was injected into oocytes which were stored in frog Ringer’s solution supplemented with 0.1% gentamycin, 50 μg per ml tetracycline, 2.5 mM pyruvate and 0.5 mM theophylline at 16–18 °C.
(§2) After 2–4 days of microinjection, current recordings were made using the two electrode voltage clamp technique with a Geneclamp 500 amplifier (Axon Instruments, Foster City, CA) interfaced with a MacLab 2e chart recorder (ADI Instruments, Sydney, Australia) using the chart software, and a Digidata 1322A (Axon Instruments) controlled by an IBM-compatible computer using the pClamp software (version 10, Molecular Devices, Union City, CA). The current–voltage relationships for substrate elicited conductances were obtained by subjecting cells to 200 ms voltage pulses between −100 mV and + 60 mV in 10 mV steps. Current–voltage relationships were calculated by subtracting steady state current measurements in the absence of substrate from corresponding current measurements in the presence of substrate.
Recording solution for all experiments (except where otherwise stated) was normal frog Ringer’s solution (Cl^−-containing buffer) with complete NO3 ^− substitution for Cl^−. For Na^+ titrations, NMDG^+ was used as the substitute cation. The pH of recording solutions was adjusted using HNO3 and NaOH or KOH. Recordings were made with the bath grounded via a 3 M KCl/agar bridge connected to a 3 M KCl reservoir to minimise offset potentials. Cells were washed with Cl^−-containing buffer between substrate applications to ensure that NO3 loading of the cell was not significant. […]

Assay [2] addresses T2, A2-S481T/C482T (mutant ASCT2) (Homo sapiens, UniProt Q15758, C467T/S466T).
T2 construct: expressed in transfected cells; host or cells: Xenopus laevis oocytes (cRNA injection)
T2 sequence (Q15758 1-541 S466T/C467T): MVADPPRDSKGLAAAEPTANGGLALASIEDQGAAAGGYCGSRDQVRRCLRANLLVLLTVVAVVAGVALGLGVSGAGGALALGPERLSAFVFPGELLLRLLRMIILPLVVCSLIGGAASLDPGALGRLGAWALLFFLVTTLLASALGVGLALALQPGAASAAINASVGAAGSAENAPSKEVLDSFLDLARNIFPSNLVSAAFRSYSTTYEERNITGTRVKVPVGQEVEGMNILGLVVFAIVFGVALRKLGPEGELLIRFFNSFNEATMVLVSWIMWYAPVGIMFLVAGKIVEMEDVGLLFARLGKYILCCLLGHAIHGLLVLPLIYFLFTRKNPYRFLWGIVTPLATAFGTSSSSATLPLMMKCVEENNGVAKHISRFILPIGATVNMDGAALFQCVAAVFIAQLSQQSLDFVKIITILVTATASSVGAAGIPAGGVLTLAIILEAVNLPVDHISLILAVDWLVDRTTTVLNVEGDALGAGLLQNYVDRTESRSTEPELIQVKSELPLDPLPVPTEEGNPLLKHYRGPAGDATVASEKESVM
Briefly: Two electrode voltage clamp, substrate-activated anion current in oocytes expressing A2-S481T/C482T. It is filed as cell-based. As to the method: as §1
as §2, with “substrate. […]” for “substrate.”
(Two-electrode voltage clamp is typically applied to oocytes expressing channels or transporters.)

Where [3] appears, read: A2-S481T/C482T in oocytes, NO3−-containing buffer, current at +60 mV, dash = substrate did not generate currents.

We go through 3 molecules from publication PMC5750217 (Nature Communications, 2018).

Molecules are shown by their SMILES.

As usually defined, the IC50 is the point on the concentration scale where inhibition reaches its midpoint. A word on the EC50: it is the concentration needed to bring the measured effect to its halfway point. Higher therefore signals lower potency in that assay.

In the case of `N[C@@H](CCC(=O)Nc1ccc([N+](=O)[O-])cc1)C(=O)O` [GPNA, glutamyl-p-nitroanilide], the “GPNA % inhibition of L-serine activated current” value in assay [1] (A1-T458S/T459C, GPNA co-applied with EC50 of L-serine, 300 µM GPNA / 1 mM GPNA (Table 1 footnote)) came out at 41 ± 4%; in assay [2] (A2-S481T/C482T, GPNA co-applied with EC50 of L-serine, 1 mM GPNA (Table 1 footnote)), 20 ± 3%. Also, the IC50 in assay [1] (A1-T458S/T459C, co-applied with EC50 of L-serine, read-out: IC50 for inhibition of L-serine activated current) worked out at 600 ± 200 µM.

In assay [1], `NC(=O)CC[C@H](N)C(=O)O` [L-glutamine] returned a concentration for a half-maximal effect (EC50) of 90 ± 10 µM. Besides, the “EC50 of substrate-activated current” value in assay [2] (setting [3]) is on record as “did not generate any currents”.

Turning to `N[C@@H](CO)C(=O)O` [L-serine], the results for the EC50 in assay [1] and in assay [2] (setting [3]) were 45 ± 5 µM and 61 ± 7 µM, respectively.
